Test results reported in article PMC8185074, “Anchor extension: a structure-guided approach to design cyclic peptides targeting enzyme active sites” (Nature Communications, 2021).
Peptide text beside a SMILES is read from it.

How the values were obtained:
Type in all cases: biochemical
HDAC2 [1] = molecular target: T1, HDAC2 (Homo sapiens, UniProt Q92769); assay: HDAC2 inhibition, full IC50 measurement (Reaction Biology; fluorogenic p53 peptide RHKK(Ac)AMC); conditions: t1
T1 construct: purchased Reaction Biology Corporation (assay run by the CRO)
T1 sequence (Q92769 whole entry): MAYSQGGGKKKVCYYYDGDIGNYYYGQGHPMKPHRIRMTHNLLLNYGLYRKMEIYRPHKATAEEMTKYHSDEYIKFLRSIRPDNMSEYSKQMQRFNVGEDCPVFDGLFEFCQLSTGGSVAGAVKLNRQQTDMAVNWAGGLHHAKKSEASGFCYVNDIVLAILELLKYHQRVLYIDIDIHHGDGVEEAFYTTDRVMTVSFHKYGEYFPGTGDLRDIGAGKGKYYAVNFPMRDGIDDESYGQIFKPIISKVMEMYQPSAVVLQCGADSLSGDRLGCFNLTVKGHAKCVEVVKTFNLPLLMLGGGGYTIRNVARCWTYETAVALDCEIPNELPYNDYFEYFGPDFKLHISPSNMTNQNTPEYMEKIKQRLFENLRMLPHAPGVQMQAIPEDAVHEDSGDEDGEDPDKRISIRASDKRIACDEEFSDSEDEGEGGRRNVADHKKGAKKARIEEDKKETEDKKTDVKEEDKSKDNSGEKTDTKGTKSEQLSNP
Experimental: (§1) The assay was performed using 50 μM fluorogenic peptide from p53 residues 379-382 [RHKK(Ac)AMC] in a base reaction buffer of 50 mM Tris-HCl at pH 8.0, 137 mM NaCl, 2.7 mM KCl, 1 mM MgCl2, and freshly added 1 mg/ml BSA and 1% DMSO. Peptides were first dissolved in DMSO and then added to the reaction mixture with the enzyme using acoustic technique, enough to reach the desired concentration for that assay point. Peptide concentrations were calculated based on mass of lyophilized peptide and its molecular weight. The substrate was then added and incubated for 1 hour at 30 °C in a sealed container. After the incubation, developer was added to stop the reaction and develop color. Kinetic measurements were then performed for 20 min with Envision with 5 min intervals (Ex/Em = 360/460 nm). The endpoint after plateau was taken for IC50 measurement.
(§2) In cases where duplicate measures are used, average data is reported in the main text or Supplementary Tables.

HDAC6 = molecular target: T2, HDAC6 (Homo sapiens, UniProt Q9UBN7); assay: HDAC6 inhibition, full IC50 measurement (Reaction Biology; fluorogenic p53 peptide RHKK(Ac)AMC); conditions: t1
T2 construct: purchased Reaction Biology Corporation (assay run by the CRO)
T2 sequence (Q9UBN7 1-1215): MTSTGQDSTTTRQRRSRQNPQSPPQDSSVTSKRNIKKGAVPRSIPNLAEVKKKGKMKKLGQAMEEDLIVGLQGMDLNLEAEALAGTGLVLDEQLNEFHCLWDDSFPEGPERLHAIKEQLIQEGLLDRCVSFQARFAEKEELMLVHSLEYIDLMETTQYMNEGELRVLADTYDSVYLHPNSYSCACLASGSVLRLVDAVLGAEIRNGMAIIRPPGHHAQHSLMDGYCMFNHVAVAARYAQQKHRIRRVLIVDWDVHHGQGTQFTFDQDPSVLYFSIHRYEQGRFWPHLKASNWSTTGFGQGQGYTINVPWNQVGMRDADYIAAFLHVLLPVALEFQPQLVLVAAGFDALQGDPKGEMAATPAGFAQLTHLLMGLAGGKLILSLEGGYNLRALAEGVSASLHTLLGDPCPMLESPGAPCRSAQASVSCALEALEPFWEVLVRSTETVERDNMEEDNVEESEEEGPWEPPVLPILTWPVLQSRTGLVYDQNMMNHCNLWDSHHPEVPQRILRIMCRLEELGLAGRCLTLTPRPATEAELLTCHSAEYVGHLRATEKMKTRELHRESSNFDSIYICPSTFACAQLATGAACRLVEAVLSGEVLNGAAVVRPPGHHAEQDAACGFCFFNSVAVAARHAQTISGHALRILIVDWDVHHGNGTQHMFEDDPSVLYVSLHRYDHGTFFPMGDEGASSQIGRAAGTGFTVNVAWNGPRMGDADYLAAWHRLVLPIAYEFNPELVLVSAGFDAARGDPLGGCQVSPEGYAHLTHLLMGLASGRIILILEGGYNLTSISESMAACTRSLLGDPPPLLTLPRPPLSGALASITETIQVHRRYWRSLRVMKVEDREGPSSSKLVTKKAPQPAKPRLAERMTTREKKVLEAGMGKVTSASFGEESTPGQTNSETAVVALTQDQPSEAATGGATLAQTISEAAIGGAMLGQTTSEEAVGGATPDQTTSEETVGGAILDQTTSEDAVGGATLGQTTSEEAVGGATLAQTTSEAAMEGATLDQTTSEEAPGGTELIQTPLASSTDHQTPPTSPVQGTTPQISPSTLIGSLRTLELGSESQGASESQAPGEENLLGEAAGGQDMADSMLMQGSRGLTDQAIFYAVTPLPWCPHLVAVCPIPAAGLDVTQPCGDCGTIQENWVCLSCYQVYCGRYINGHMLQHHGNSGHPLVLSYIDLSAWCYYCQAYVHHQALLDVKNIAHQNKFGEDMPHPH
Experimental: as §1, §2

HDAC1 = molecular target: T3, HDAC1 (Homo sapiens, UniProt Q13547); assay: HDAC1 inhibition, full IC50 measurement (Reaction Biology; fluorogenic p53 peptide RHKK(Ac)AMC); conditions: t1/t2 replicates
T3 construct: purchased Reaction Biology Corporation (assay run by the CRO)
T3 sequence (Q13547 whole entry): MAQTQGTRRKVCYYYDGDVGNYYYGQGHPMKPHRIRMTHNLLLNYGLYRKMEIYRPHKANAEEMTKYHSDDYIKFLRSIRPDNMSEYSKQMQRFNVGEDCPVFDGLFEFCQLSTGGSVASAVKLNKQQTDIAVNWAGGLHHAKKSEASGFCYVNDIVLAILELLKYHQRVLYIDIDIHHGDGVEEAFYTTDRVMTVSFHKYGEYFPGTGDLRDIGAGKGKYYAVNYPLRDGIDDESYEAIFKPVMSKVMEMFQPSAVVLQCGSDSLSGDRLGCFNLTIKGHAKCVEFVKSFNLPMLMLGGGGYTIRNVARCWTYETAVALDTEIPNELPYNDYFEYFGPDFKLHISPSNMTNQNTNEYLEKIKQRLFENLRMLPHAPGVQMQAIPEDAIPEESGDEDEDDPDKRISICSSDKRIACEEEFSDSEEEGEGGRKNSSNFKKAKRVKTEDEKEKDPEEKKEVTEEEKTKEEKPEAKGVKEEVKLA
Experimental: as §1, §2

HDAC3 = molecular target: T4, HDAC3 (Homo sapiens, UniProt O15379); assay: HDAC3 inhibition, full IC50 measurement (Reaction Biology; fluorogenic p53 peptide RHKK(Ac)AMC); conditions: t1
T4 construct: purchased Reaction Biology Corporation (assay run by the CRO)
T4 sequence (O15379 whole entry): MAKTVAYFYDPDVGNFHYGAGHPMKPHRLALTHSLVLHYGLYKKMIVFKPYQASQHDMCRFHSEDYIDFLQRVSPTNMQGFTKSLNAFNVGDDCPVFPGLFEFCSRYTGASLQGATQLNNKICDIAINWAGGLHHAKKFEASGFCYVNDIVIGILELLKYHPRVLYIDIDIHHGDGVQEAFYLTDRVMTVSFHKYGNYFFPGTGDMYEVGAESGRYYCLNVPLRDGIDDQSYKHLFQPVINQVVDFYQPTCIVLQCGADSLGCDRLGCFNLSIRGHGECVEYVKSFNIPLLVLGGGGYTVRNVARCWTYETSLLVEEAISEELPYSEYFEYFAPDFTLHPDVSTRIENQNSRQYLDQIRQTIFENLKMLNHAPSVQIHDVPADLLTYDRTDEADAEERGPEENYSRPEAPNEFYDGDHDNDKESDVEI
T4 sequence (Q9Y618 395-489 partner limits assumed): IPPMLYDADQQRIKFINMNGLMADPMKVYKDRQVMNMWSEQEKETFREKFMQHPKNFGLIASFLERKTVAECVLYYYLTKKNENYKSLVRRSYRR
Experimental: as §1, §2

HDAC8 = molecular target: T5, HDAC8 (Homo sapiens, UniProt Q9BY41); assay: HDAC8 inhibition, full IC50 measurement (Reaction Biology; fluorogenic p53 peptide RHKK(Ac)AMC); conditions: t1/t2 replicates
T5 construct: purchased Reaction Biology Corporation (assay run by the CRO)
T5 sequence (Q9BY41 1-377): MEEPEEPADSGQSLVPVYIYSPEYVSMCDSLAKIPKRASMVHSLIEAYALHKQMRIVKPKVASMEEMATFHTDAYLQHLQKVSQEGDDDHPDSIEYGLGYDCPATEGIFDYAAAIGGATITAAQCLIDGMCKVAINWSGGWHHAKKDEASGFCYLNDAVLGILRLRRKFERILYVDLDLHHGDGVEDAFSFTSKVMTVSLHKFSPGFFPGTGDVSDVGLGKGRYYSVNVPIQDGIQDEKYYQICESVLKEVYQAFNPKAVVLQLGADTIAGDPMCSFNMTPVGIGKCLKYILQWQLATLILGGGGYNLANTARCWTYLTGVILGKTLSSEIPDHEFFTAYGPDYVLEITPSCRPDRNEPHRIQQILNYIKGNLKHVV
Experimental: as §1, §2

HDAC2 [2] = molecular target: T1, HDAC2; assay: Initial HDAC2 IC50 estimate (BPS Biosciences HDAC fluorogenic assay kit)
Experimental: Initial IC50 values were estimated using HDAC fluorogenic assay kits from BPS Biosciences (HDAC2, HDAC4, and HDAC6) following the protocol described in the kit. All the measures were performed in duplicates or triplicates. These measurements were done either on full range of concentrations (1:10 dilution from 1 µM to 100 pM) or on two concentrations only (20 nM and 200 nM) as an estimate of the range. […] Source Data are provided as a Source Data file.

[3] = HDAC2 activity (initial activity), Supplementary Dataset 2
[4] = HDAC2 activity (initial values for HDAC2 IC50), Supp. Table 4, rough estimates, for promising hits full measurements

## NCCCC[C@@H]1NC(=O)[C@@H]2C[C@@H](O)CN2C(=O)[C@H](CC(N)=O)NC(=O)[C@H](CCCCCS)NC(=O)CNC(=O)[C@H](Cc2c[nH]c3ccccc23)NC(=O)[C@@H](CCCCN)NC(=O)[C@H](CCC(N)=O)NC1=O [des1.1.2, SHA-Asn-Hpr-Lys-Gln-dLys-Trp-Gly] (HELM PEPTIDE1{G.[O=C([C@H](CCCCCS)N[*:1])[*:2]].N.[Hyp].K.Q.[dK].W}$PEPTIDE1,PEPTIDE1,1:R1-8:R2$$$V2.0)
HDAC2 [1]; Conc. 1.00E-05 M
  HDAC2 activity raw data (signal): 101836
HDAC2 [1]; Conc. 1.11E-06 M
  HDAC2 activity raw data (signal): 502310
HDAC2 [1]; Conc. 1.23E-07 M
  HDAC2 activity raw data (signal): 836305
HDAC2 [1]; Conc. 1.37E-08 M
  HDAC2 activity raw data (signal): 962979
HDAC2 [1]; Conc. 1.52E-09 M
  HDAC2 activity raw data (signal): 1015460
HDAC2 [1]; Conc. 3.33E-06 M
  HDAC2 activity raw data (signal): 281419
HDAC2 [1]; Conc. 3.70E-07 M
  HDAC2 activity raw data (signal): 724069
HDAC2 [1]; Conc. 4.12E-08 M
  HDAC2 activity raw data (signal): 1007771
HDAC2 [1]; Conc. 4.57E-09 M
  HDAC2 activity raw data (signal): 1082856
HDAC2 [1]; Conc. 5.08E-10 M
  HDAC2 activity raw data (signal): 1067045
HDAC6; Conc. 1.00E-05 M
  HDAC6 activity raw data (signal): 10576
HDAC6; Conc. 1.11E-06 M
  HDAC6 activity raw data (signal): 35009
HDAC6; Conc. 1.23E-07 M
  HDAC6 activity raw data (signal): 150676
HDAC6; Conc. 1.37E-08 M
  HDAC6 activity raw data (signal): 391207
HDAC6; Conc. 1.52E-09 M
  HDAC6 activity raw data (signal): 551447
HDAC6; Conc. 3.33E-06 M
  HDAC6 activity raw data (signal): 16992
HDAC6; Conc. 3.70E-07 M
  HDAC6 activity raw data (signal): 72135
HDAC6; Conc. 4.12E-08 M
  HDAC6 activity raw data (signal): 256776
HDAC6; Conc. 4.57E-09 M
  HDAC6 activity raw data (signal): 497632
HDAC6; Conc. 5.08E-10 M
  HDAC6 activity raw data (signal): 597163
HDAC1; peptide conc. 1.00E-05 M
  HDAC1 activity raw data (signal): 76959
HDAC1; peptide conc. 1.11E-06 M
  HDAC1 activity raw data (signal): 410794
HDAC1; peptide conc. 1.23E-07 M
  HDAC1 activity raw data (signal): 886094
HDAC1; peptide conc. 1.37E-08 M
  HDAC1 activity raw data (signal): 1048348
HDAC1; peptide conc. 1.52E-09 M
  HDAC1 activity raw data (signal): 1178275
HDAC1; peptide conc. 3.33E-06 M
  HDAC1 activity raw data (signal): 193861
HDAC1; peptide conc. 3.70E-07 M
  HDAC1 activity raw data (signal): 669526
HDAC1; peptide conc. 4.12E-08 M
  HDAC1 activity raw data (signal): 1039919
HDAC1; peptide conc. 4.57E-09 M
  HDAC1 activity raw data (signal): 1106752
HDAC1; peptide conc. 5.08E-10 M
  HDAC1 activity raw data (signal): 1177089
HDAC3; Conc. 1.00E-05 M
  HDAC3 activity raw data (signal): 22366
HDAC3; Conc. 1.11E-06 M
  HDAC3 activity raw data (signal): 160146
HDAC3; Conc. 1.23E-07 M
  HDAC3 activity raw data (signal): 601268
HDAC3; Conc. 1.37E-08 M
  HDAC3 activity raw data (signal): 1087451
HDAC3; Conc. 1.52E-09 M
  HDAC3 activity raw data (signal): 1408573
HDAC3; Conc. 3.33E-06 M
  HDAC3 activity raw data (signal): 60464
HDAC3; Conc. 3.70E-07 M
  HDAC3 activity raw data (signal): 337153
HDAC3; Conc. 4.12E-08 M
  HDAC3 activity raw data (signal): 888364
HDAC3; Conc. 4.57E-09 M
  HDAC3 activity raw data (signal): 1250419
HDAC3; Conc. 5.08E-10 M
  HDAC3 activity raw data (signal): 1404307
HDAC8; peptide conc. 1.00E-05 M
  HDAC8 activity raw data (signal): 21213376
HDAC8; peptide conc. 1.11E-06 M
  HDAC8 activity raw data (signal): 37632401
HDAC8; peptide conc. 1.23E-07 M
  HDAC8 activity raw data (signal): 42211938
HDAC8; peptide conc. 1.37E-08 M
  HDAC8 activity raw data (signal): 48061782
HDAC8; peptide conc. 1.52E-09 M
  HDAC8 activity raw data (signal): 52470288
HDAC8; peptide conc. 3.33E-06 M
  HDAC8 activity raw data (signal): 31972513
HDAC8; peptide conc. 3.70E-07 M
  HDAC8 activity raw data (signal): 43240252
HDAC8; peptide conc. 4.12E-08 M
  HDAC8 activity raw data (signal): 47347914
HDAC8; peptide conc. 4.57E-09 M
  HDAC8 activity raw data (signal): 49471078
HDAC8; peptide conc. 5.08E-10 M
  HDAC8 activity raw data (signal): 54514203

## NCCCC[C@@H]1NC(=O)[C@@H]2CCCN2C(=O)[C@H](CC(N)=O)NC(=O)[C@H](CCCCCS)NC(=O)CNC(=O)[C@H](Cc2c[nH]c3ccccc23)NC(=O)[C@@H](CCCCN)NC(=O)[C@H](CN)NC1=O [des1.1.3, SHA-Asn-Pro-Lys-Dap-dLys-Trp-Gly] (HELM PEPTIDE1{[NC[C@H](N[*:1])C(=O)[*:2]].[dK].W.G.[O=C([C@H](CCCCCS)N[*:1])[*:2]].N.P.K}$PEPTIDE1,PEPTIDE1,1:R1-8:R2$$$V2.0)
HDAC2 [2]; [3]
  IC50: 100 nM
HDAC2 [2]; [4]
  IC50: 10 to 100 nM

## NCCCC[C@@H]1NC(=O)[C@@H]2CCCN2C(=O)[C@H](CC(N)=O)NC(=O)[C@H](CCCCCS)NC(=O)CNC(=O)[C@H](Cc2c[nH]c3ccccc23)NC(=O)[C@@H](CCCCN)NC(=O)[C@H](CO)NC1=O [des1.1.4, SHA-Asn-Pro-Lys-Ser-dLys-Trp-Gly] (HELM PEPTIDE1{G.[O=C([C@H](CCCCCS)N[*:1])[*:2]].N.P.K.S.[dK].W}$PEPTIDE1,PEPTIDE1,1:R1-8:R2$$$V2.0)
HDAC2 [2]; [3]
  IC50: 100 nM
HDAC2 [2]; [4]
  IC50: 10 to 100 nM
